Drawing on ChEMBL document CHEMBL1255550, “Natural product derivatives with bactericidal activity against Gram-positive pathogens including methicillin-resistant Staphylococcus aureus and vancomycin-resistant Enterococcus faecalis” (2010), this text covers MIC and log10cfu for 6 compounds.

Molecules are shown by their SMILES. ≈ marks a conversion by molar mass, not a printed value. A value given as a limit tells only on which side of the number the result lay.

Assay type in all cases: functional
Test [1] deals with Staphylococcus aureus. Nature of the test: Antibacterial activity against Staphylococcus aureus.
For test [2], the system named is Bacillus subtilis. Nature of the test: Antibacterial activity against Bacillus subtilis assessed as reduction of bacterial viability at 2 times MIC after 30mins.
The test system of test [3] is Staphylococcus aureus. Nature of the test: Antibacterial activity against methicillin-resistant Staphylococcus aureus.
The subject of the next test is Enterococcus faecalis. Nature of the test: Antibacterial activity against vancomycin-resistant Enterococcus faecalis.
In test [4] the test system is Bacillus subtilis. Nature of the test: Antibacterial activity against Bacillus subtilis.
A further test has as its system Bacillus anthracis. Nature of the test: Antibacterial activity against Bacillus anthracis.

One may read the MIC as the smallest concentration in the dilution series that meets the test's criterion for growth inhibition. A higher MIC goes with a less susceptible organism.

On to `COC(=O)CCC(=O)O[C@H](C)C[C@H]1CC[C@@H]([C@H](C)Cn2cc(-c3cccc(NC(C)=O)c3)nn2)O1`, for which the minimum inhibitory concentration (MIC) with Staphylococcus aureus [1] was determined as 370 µg/mL (≈ 760 µM); in the test with Staphylococcus aureus [3] it was 122 µg/mL (≈ 251 µM); against Enterococcus faecalis, 61 µg/mL (≈ 125 µM); in the test on Bacillus subtilis [4], 91 µg/mL (≈ 187 µM); against Bacillus anthracis it was 180 µg/mL (≈ 370 µM). The log10cfu with Bacillus subtilis [2] is over 3.

With `C[C@H](C[C@H]1CC[C@@H]([C@H](C)Cn2cc(-c3ccccn3)nn2)O1)OC(=O)c1ccccc1`, the MIC in the test with Staphylococcus aureus [1] was 320 µg/mL (≈ 761 µM); in the test with Staphylococcus aureus [3] it was 210 µg/mL (≈ 499 µM); against Enterococcus faecalis it was 26 µg/mL (≈ 61.8 µM); against Bacillus subtilis [4], 20 µg/mL (≈ 47.6 µM); against Bacillus anthracis, 320 µg/mL (≈ 761 µM).

`Br.COC(=O)CCC(=O)OC(C)CC1CCC(C(C)Cn2cc(-c3cccc(NC(C)=O)c3)nn2)O1` (racemic): the values for the MIC with Staphylococcus aureus [1], with Bacillus subtilis [4] and in the test with Bacillus anthracis were 370 µg/mL, 180 µg/mL and 370 µg/mL, respectively.

As to `COC(=O)CCC(=O)O[C@@H](C)C[C@@H]1CC[C@H]([C@@H](C)Cn2cc(-c3cccc(NC(C)=O)c3)nn2)O1` (single isomer, unassigned), the MIC with Staphylococcus aureus [1], against Enterococcus faecalis, in the test on Bacillus subtilis [4] and in the test with Bacillus anthracis was over 730 µg/mL each time.

As for `C[C@@H](C[C@@H]1CC[C@H]([C@@H](C)Cn2cc(-c3ccccn3)nn2)O1)OC(=O)c1ccccc1` (single isomer, unassigned), the MIC in the test with Staphylococcus aureus [1], in the test on Enterococcus faecalis, against Bacillus subtilis [4] and with Bacillus anthracis was over 630 µg/mL throughout.

With `CC(CC1CCC(C(C)Cn2cc(-c3ccccn3)nn2)O1)OC(=O)c1ccccc1` (racemic), the minimum inhibitory concentration (MIC) in the test with Staphylococcus aureus [1] came to 630 µg/mL (≈ 1500 µM); against Bacillus subtilis [4], 40 µg/mL (≈ 95.1 µM); against Bacillus anthracis, 630 µg/mL (≈ 1500 µM).
